In one series the target is T1, Nurr1 (Homo sapiens, UniProt P43354).
T1 construct: pFA-CMV-hNurr1-LBD; expressed in transfected cells; host or cells: HEK293T
The experiment in a line: Gal4-hybrid reporter gene assay, Nurr1. The class given is cell-based. To be noted: Gal4-hybrid reporter gene assay; for max. act. (Nurr1): max. fold activation; for EC50: mean±S.E.M., n≥3. Here is the method: (§1) modified Eagle’s medium (DMEM), high glucose supplemented with 10% fetal calf serum (FCS), sodium pyruvate (1 mM), penicillin (100 U/mL), and streptomycin (100 μg/mL) at 37 °C and 5% CO2 and seeded in 96-well plates (3×10^4 cells/well). After 24 h, the medium was changed to Opti-MEM without supplements, and the cells were transiently transfected using Lipofectamine LTX reagent (Invitrogen) according to the manufacturer’s protocol. Five hours after transfection, the cells were incubated with the test compounds in Opti-MEM supplemented with penicillin (100 U/mL), streptomycin (100 μg/mL), and 0.1% DMSO for 15 h before luciferase activity was measured using the Dual -Glo Luciferase Assay System (Promega) according to the manufacturer’s protocol on a Tecan Spark l uminometer (Tecan Deutschland GmbH, Germany). Firefly luminescence was divided by Renilla luminescence and multiplied by 1000, resulting in relative light units (RLU) to normalize for transfection efficiency and cell growth. Fold activation was obtained by dividing the mean RLU of a sample by the mean RLU of the untreated control. All samples were tested in at least three biologically independent experiments in duplicates. For dose –response curve fitting and calculation of EC50 values, the equation “[Agonist] vs. response – Variable slope (four parameters)” was used in GraphPad Prism (version 5.04, GraphPad Software, La Jolla, CA, USA). […] (10 μM, NR4A) and bexarotene (1 µM, NR2B) served as the positive control. […]
(§2) 150 μM in the same buffer containing 2-4% DMSO) in 21–26 injections (1 × 1 μL and 20 × 4 to 25 × 4 μL) with an injection interval of 120 s. As control experiments, the test compounds were titrated to the buffer, and the buffer was titrated to the protein under otherwise identical conditions. The heat rates of the compound-Nurr1 LBD titrations were analyzed using NanoAnalyze software (TA Instruments, New Castle, DE) with an independent binding model.
(In a reporter assay the amount or activity of a reporter protein is the signal.)

The target of the next series is T2, RXRα (Homo sapiens, UniProt P19793).
T2 construct: pFA-CMV-hRXRα-LBD; expressed in transfected cells; host or cells: HEK293T
T2 sequence (P19793 227-458 limits assumed): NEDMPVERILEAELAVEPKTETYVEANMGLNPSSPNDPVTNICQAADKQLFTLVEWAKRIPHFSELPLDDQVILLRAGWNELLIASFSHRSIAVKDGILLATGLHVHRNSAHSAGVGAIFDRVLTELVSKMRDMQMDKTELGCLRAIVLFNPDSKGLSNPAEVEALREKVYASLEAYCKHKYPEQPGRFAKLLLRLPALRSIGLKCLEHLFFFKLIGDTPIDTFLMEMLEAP
Put plainly: Gal4-hybrid reporter gene assay, RXRα. The class given is cell-based. The following applies: Gal4-hybrid reporter gene assay; for EC50: mean±S.E.M., n≥3. As to the method: as §1, §2

The next series addresses T3, RXRγ (Homo sapiens, UniProt P48443).
T3 construct: pFA-CMV-hRXRγ-LBD; expressed in transfected cells; host or cells: HEK293T
T3 sequence (P48443 231-459 limits assumed): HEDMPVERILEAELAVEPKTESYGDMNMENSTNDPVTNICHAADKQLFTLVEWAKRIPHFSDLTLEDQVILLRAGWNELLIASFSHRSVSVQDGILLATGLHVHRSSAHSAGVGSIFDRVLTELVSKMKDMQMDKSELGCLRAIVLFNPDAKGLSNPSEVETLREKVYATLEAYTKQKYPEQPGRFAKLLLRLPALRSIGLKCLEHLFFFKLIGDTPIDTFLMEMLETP
Put plainly: Gal4-hybrid reporter gene assay, RXRγ. The class given is cell-based. The following applies: Gal4-hybrid reporter gene assay; for EC50: mean±S.E.M., n≥3. As to the method: as §1, §2

Series [1] addresses T4, Nurr1:RXR heterodimer (DR5) (Homo sapiens, UniProt P19793+P43354).
T4 construct: full-length human nuclear receptor Nurr1 encoded by pcDNA3.1 -hNurr1-NE; full length human RXRα encoded by pSG5-hRXR; host or cells: HEK293T
Put plainly: Full-length Nurr1 reporter gene assay, heterodimer response element DR5. To be noted: read-out: EC50, activation of the Nurr1:RXR heterodimer (DR5). The class given is cell-based. As to the method:
Based on these findings, we next determined the effects of 2 and 3 on Nurr1 activity in a cellular setting using reporter constructs for the NGFI-B response element (NBRE), the Nur response element (NurRE), and the direct repeat 5 (DR5)[36]. All three response elements are robustly activated by common Nurr1 agonists[4],[31]. […]
Reporter gene assays for full-length human Nurr1 and RXR. Modulation of full-length human Nurr1 (NR4A2) was studied using pRL-SV40 (1.5 ng/well reporter plasmid) and the previously described4 reporter plasmids pFR-Luc-NBRE (100 ng/well reporter plasmid), pFR-Luc-NurRE (50 ng/well reporter plasmid) or pFR-Luc-DR5 (50 ng/well reporter plasmid). […] Five hours after transfection, the cells wer e incubated with the test compounds in Opti-MEM supplemented with penicillin (100 U/mL), streptomycin (100 μg/mL), and 0.1% DMSO for 15 h before luciferase activity was measured using the Dual-Glo Luciferase Assay System (Promega) according to the manufacturer’s protocol on a Tecan Spark luminometer (Tecan Deutschland GmbH, Germany). Firefly luminescence was divided by Renilla luminescence and multiplied by 1000, resulting in relative light units (RLU) to normalize for transfection efficiency and cell growth. […]

Another series is described as follows: Chemical stability. It is filed as physicochemical. To be noted: compared to 2.

Where “and” joins values, the source holds several entries; their conditions need not be identical. Identical values can stand only once.

The term EC50 denotes the concentration needed to bring the measured effect to its halfway point.

T1 sequence (P43354 360-595 limits assumed): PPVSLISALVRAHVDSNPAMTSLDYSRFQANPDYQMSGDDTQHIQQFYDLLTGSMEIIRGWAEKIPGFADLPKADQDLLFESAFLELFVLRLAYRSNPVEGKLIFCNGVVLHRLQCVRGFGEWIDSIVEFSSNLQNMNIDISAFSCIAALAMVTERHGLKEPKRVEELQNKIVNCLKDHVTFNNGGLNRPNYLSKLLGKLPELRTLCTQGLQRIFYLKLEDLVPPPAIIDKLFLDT
T4 sequence (P43354 whole entry): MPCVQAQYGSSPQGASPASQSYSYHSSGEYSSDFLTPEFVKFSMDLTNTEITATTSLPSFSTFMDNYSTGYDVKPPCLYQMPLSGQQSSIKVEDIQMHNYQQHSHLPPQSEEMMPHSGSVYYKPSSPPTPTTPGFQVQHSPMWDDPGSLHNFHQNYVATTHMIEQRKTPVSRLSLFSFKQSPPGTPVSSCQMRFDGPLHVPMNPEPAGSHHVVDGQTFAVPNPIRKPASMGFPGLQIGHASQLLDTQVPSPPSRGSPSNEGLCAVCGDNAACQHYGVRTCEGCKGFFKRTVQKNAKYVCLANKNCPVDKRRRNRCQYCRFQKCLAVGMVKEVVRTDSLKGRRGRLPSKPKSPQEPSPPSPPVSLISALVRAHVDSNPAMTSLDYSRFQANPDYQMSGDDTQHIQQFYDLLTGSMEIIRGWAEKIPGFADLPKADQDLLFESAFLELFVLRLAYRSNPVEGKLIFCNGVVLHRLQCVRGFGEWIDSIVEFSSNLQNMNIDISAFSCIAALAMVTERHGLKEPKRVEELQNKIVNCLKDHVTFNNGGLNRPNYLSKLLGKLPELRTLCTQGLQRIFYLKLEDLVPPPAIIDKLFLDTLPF
T4 sequence (P19793 whole entry): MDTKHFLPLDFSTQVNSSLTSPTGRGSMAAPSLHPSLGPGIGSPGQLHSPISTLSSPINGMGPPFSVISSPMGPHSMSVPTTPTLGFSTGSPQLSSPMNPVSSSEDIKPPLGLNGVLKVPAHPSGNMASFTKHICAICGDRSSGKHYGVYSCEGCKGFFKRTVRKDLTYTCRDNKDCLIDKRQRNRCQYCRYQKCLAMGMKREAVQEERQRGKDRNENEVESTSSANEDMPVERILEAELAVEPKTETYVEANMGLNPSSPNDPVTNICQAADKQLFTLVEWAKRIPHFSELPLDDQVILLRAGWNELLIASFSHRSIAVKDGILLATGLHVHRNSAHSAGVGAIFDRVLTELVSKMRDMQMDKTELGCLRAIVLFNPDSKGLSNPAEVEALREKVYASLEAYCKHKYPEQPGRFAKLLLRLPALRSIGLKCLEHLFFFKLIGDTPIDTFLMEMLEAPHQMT

As for `Cc1c(C)n(-c2ccc(CC(=O)O)cc2)c2ccc(F)cc12` [compound 3], the “max. act. (Nurr1)” value at Nurr1 is listed as 4.3±0.5 fold. For the same compound, the EC50 stood at 2.2 ± 0.9 µM on Nurr1, 0.4 µM at RXRα, 1.7 µM on RXRγ and 0.6 µM in series [1]. In addition, at RXRα, the “max. act. (RXR) α” value is on record as 83±9 fold. Further, on RXRγ, the “max. act. (RXR) γ” value is 67±4 fold. The chemical stability entry in “Chemical stability” is on record as “improved chemical stability”.

With `Cc1c2c(n(-c3ccc(CC(=O)O)cc3)c1C)CCC(F)(F)C2` [compound 2], the “max. act. (Nurr1)” value at Nurr1 is 3.3 fold and 3.3±0.1 fold. In addition, the EC50 at Nurr1 was 2.6 ± 0.4 µM; on RXRα, 0.97 µM; on RXRγ, 3.4 µM; in series [1] it was 1 µM. Besides, the “max. act. (RXR) α” value at RXRα stood at 69±1 fold. Besides, at RXRγ, the “max. act. (RXR) γ” value was found to be 44±1 fold.

Source of the values: article PMC7618597, “Dual Nurr1/RXR agonism of valerenic acid and synthetic mimetics enables dimer-selective Nurr1 modulation” (ACS medicinal chemistry letters, 2025).
